Laboratory results as given in paper PMC11937972 (JACS Au, 2025).
Like-named read-outs stand apart in the source and are kept apart here. Each block holds one molecule with its values, some of them ahead of it.

Columns and labels:
[1] = target: T1, URAT1^EM (humanized rat URAT1, rURAT1-3M) (Rattus norvegicus, UniProt Q3ZAV1, M481I/N35S/Y365F); assay: cell-based
T1 sequence (Q3ZAV1 1-553 N35S/Y365F/M481I): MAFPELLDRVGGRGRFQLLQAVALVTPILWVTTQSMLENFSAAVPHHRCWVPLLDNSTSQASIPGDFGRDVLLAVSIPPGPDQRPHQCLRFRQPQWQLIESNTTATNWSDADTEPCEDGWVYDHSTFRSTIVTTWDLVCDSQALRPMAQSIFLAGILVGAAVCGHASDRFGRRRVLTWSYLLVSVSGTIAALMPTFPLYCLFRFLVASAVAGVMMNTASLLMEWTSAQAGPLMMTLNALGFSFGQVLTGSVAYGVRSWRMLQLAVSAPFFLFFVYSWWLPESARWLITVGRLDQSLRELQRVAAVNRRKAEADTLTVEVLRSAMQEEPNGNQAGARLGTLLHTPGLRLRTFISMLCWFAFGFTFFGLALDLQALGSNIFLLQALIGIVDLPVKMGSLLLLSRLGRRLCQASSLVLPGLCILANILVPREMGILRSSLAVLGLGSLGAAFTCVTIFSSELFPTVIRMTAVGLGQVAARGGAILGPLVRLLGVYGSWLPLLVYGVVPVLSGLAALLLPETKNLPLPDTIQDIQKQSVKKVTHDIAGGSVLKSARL

[2] = target: T2, human URAT1 (hURAT1) (Homo sapiens, UniProt Q96S37); assay: inhibition of urate uptake in transfected HEK293T cells; assay type: cell-based
T2 sequence (Q96S37 1-553): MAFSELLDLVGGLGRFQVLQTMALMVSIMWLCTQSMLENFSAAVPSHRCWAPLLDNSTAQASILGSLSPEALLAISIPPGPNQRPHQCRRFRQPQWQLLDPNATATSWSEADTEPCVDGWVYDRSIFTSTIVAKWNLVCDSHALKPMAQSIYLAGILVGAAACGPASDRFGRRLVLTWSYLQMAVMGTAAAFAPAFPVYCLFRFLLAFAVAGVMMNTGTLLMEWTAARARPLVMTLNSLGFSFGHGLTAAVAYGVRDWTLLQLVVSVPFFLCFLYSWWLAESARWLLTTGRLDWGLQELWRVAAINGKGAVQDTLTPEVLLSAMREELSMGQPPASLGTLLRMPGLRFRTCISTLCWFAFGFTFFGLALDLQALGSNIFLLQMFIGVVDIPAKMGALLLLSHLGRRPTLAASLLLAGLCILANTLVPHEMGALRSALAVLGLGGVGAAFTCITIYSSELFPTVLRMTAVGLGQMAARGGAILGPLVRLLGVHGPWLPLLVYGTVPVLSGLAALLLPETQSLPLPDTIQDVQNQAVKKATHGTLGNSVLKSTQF

[3] = target: T1, URAT1^EM (humanized rat URAT1, rURAT1-3M); assay: cryo-EM structure at […] Å; assay type: cell-based
[4] = substrate: O=c1[nH]c(=O)c2[nH]c(=O)[nH]c2[nH]1; assay: concentration-dependent urate uptake in HEK293T cells, Km; assay type: cell-based, Rattus norvegicus
[5] = substrate: O=c1[nH]c(=O)c2[nH]c(=O)[nH]c2[nH]1; assay: as above; assay type: cell-based, Homo sapiens

B1: URAT1^EM (humanized rat URAT1, rURAT1-3M) (Rattus norvegicus; M481I/N35S/Y365F) (protein)
chain: T1 sequence (Q3ZAV1 1-553 N35S/Y365F/M481I)
Km [4]: 203 µM

B2: human URAT1 (hURAT1) (Homo sapiens) (protein)
chain: T2 sequence (Q96S37 1-553)
Km [5]: 80 µM

Continued, in another order:

IC50 [1]: 425 nM
Molecule: CCc1oc2ccccc2c1C(=O)c1cc(Br)c(O)c(Br)c1 [BEN, benzbromarone]

IC50 [3]: 150 nM
Molecule: CC(C)(Sc1ccncc1-c1ccc(C#N)c2ccccc12)C(=O)O [VER, verinurad]
IC50 [2]: Inhibition of human URAT1 WT and variants by verinurad.
